{"source": "ChEMBL document CHEMBL3885881", "about": "“DrugMatrix”", "species": "Rattus norvegicus", "assay": "DrugMatrix - Regimen: Daily Repeat", "type": "toxicity, organism-based, Sprague-Dawley", "set-up": "regimen Daily Repeat, gender Male, age 6-8 weeks", "conditions": "in vivo, po, 30 mg/kg, route oral GAVAGE, dose level Low, vehicle .5 % CMC; for BASOPHIL / EOSINOPHIL / ERYTHROCYTE COUNT / HEMATOCRIT / HEMOGLOBIN / LEUKOCYTE COUNT / LYMPHOCYTE / MEAN CORPUSCULAR HEMOGLOBIN / MEAN CORPUSCULAR HEMOGLOBIN CONCENTRATION / MEAN CORPUSCULAR VOLUME / MONOCYTE / NEUTROPHIL / PLATELET COUNT: tissue Blood; for ALANINE AMINOTRANSFERASE / ALBUMIN / ALKALINE PHOSPHATASE / ASPARTATE AMINOTRANSFERASE / BLOOD UREA NITROGEN / CHLORIDE / CHOLESTEROL / CREATINE PHOSPHOKINASE / CREATININE / GLUCOSE / PHOSPHORUS / POTASSIUM / SODIUM / TOTAL BILIRUBIN / TOTAL PROTEIN: tissue Plasma", "data": [{"smiles": "CCCc1cc(=O)[nH]c(=S)[nH]1", "note": "[PROPYLTHIOURACIL]", "values": [{"measurement": "BASOPHIL", "setting": "72 h, time 3 day", "value": 0, "unit": "%"}, {"measurement": "EOSINOPHIL", "setting": "72 h, time 3 day", "value": 0.67, "unit": "%"}, {"measurement": "ERYTHROCYTE COUNT", "setting": "72 h, time 3 day", "value": 5.84, "unit": "x10E6/uL"}, {"measurement": "HEMATOCRIT", "setting": "72 h, time 3 day", "value": 36.23, "unit": "%"}, {"measurement": "HEMOGLOBIN", "setting": "72 h, time 3 day", "value": 14.13, "unit": "G/DL"}, {"measurement": "LEUKOCYTE COUNT", "setting": "72 h, time 3 day", "value": 20.27, "unit": "x10E3/uL"}, {"measurement": "LYMPHOCYTE", "setting": "72 h, time 3 day", "value": 89.33, "unit": "%"}, {"measurement": "MEAN CORPUSCULAR HEMOGLOBIN", "setting": "72 h, time 3 day", "value": 24.23, "unit": "pg"}, {"measurement": "MEAN CORPUSCULAR HEMOGLOBIN CONCENTRATION", "setting": "72 h, time 3 day", "value": 39, "unit": "G/DL"}, {"measurement": "MEAN CORPUSCULAR VOLUME", "setting": "72 h, time 3 day", "value": 62.03, "unit": "fL"}, {"measurement": "MONOCYTE", "setting": "72 h, time 3 day", "value": 2, "unit": "%"}, {"measurement": "NEUTROPHIL", "setting": "72 h, time 3 day", "value": 8, "unit": "%"}, {"measurement": "PLATELET COUNT", "setting": "72 h, time 3 day", "value": 1163.33, "unit": "x10E3/uL"}, {"measurement": "ALANINE AMINOTRANSFERASE", "setting": "72 h, time 3 day", "value": 44, "unit": "u/L"}, {"measurement": "ALBUMIN", "setting": "72 h, time 3 day", "value": 3.73, "unit": "G/DL"}, {"measurement": "ALKALINE PHOSPHATASE", "setting": "72 h, time 3 day", "value": 305.67, "unit": "u/L"}, {"measurement": "ASPARTATE AMINOTRANSFERASE", "setting": "72 h, time 3 day", "value": 56, "unit": "u/L"}, {"measurement": "BLOOD UREA NITROGEN", "setting": "72 h, time 3 day", "value": 11, "unit": "mg/dL"}, {"measurement": "CHLORIDE", "setting": "72 h, time 3 day", "value": 106.33, "unit": "MEQ/L"}, {"measurement": "CHOLESTEROL", "setting": "72 h, time 3 day", "value": 78, "unit": "mg/dL"}, {"measurement": "CREATINE PHOSPHOKINASE", "setting": "72 h, time 3 day", "value": 125.67, "unit": "u/L"}, {"measurement": "CREATININE", "setting": "72 h, time 3 day", "value": 0.47, "unit": "mg/dL"}, {"measurement": "GLUCOSE", "setting": "72 h, time 3 day", "value": 167.33, "unit": "mg/dL"}, {"measurement": "PHOSPHORUS", "setting": "72 h, time 3 day", "value": 11, "unit": "mg/dL"}, {"measurement": "POTASSIUM", "setting": "72 h, time 3 day", "value": 6.5, "unit": "MEQ/L"}, {"measurement": "SODIUM", "setting": "72 h, time 3 day", "value": 152, "unit": "MEQ/L"}, {"measurement": "TOTAL BILIRUBIN", "setting": "72 h, time 3 day", "value": 0.3, "unit": "mg/dL"}, {"measurement": "TOTAL PROTEIN", "setting": "72 h, time 3 day", "value": 5.9, "unit": "G/DL"}, {"measurement": "BASOPHIL", "setting": "120 h, time 5 day", "value": 0, "unit": "%"}, {"measurement": "EOSINOPHIL", "setting": "120 h, time 5 day", "value": 0, "unit": "%"}, {"measurement": "ERYTHROCYTE COUNT", "setting": "120 h, time 5 day", "value": 6.26, "unit": "x10E6/uL"}, {"measurement": "HEMATOCRIT", "setting": "120 h, time 5 day", "value": 37.07, "unit": "%"}, {"measurement": "HEMOGLOBIN", "setting": "120 h, time 5 day", "value": 14.77, "unit": "G/DL"}, {"measurement": "LEUKOCYTE COUNT", "setting": "120 h, time 5 day", "value": 11.7, "unit": "x10E3/uL"}, {"measurement": "LYMPHOCYTE", "setting": "120 h, time 5 day", "value": 87, "unit": "%"}, {"measurement": "MEAN CORPUSCULAR HEMOGLOBIN", "setting": "120 h, time 5 day", "value": 23.6, "unit": "pg"}, {"measurement": "MEAN CORPUSCULAR HEMOGLOBIN CONCENTRATION", "setting": "120 h, time 5 day", "value": 39.83, "unit": "G/DL"}, {"measurement": "MEAN CORPUSCULAR VOLUME", "setting": "120 h, time 5 day", "value": 59.2, "unit": "fL"}, {"measurement": "MONOCYTE", "setting": "120 h, time 5 day", "value": 1.67, "unit": "%"}, {"measurement": "NEUTROPHIL", "setting": "120 h, time 5 day", "value": 11.33, "unit": "%"}, {"measurement": "PLATELET COUNT", "setting": "120 h, time 5 day", "value": 1185.67, "unit": "x10E3/uL"}, {"measurement": "ALANINE AMINOTRANSFERASE", "setting": "120 h, time 5 day", "value": 32.67, "unit": "u/L"}, {"measurement": "ALBUMIN", "setting": "120 h, time 5 day", "value": 3.53, "unit": "G/DL"}, {"measurement": "ALKALINE PHOSPHATASE", "setting": "120 h, time 5 day", "value": 297.33, "unit": "u/L"}, {"measurement": "ASPARTATE AMINOTRANSFERASE", "setting": "120 h, time 5 day", "value": 51.67, "unit": "u/L"}, {"measurement": "BLOOD UREA NITROGEN", "setting": "120 h, time 5 day", "value": 13.33, "unit": "mg/dL"}, {"measurement": "CHLORIDE", "setting": "120 h, time 5 day", "value": 108.33, "unit": "MEQ/L"}, {"measurement": "CHOLESTEROL", "setting": "120 h, time 5 day", "value": 68, "unit": "mg/dL"}, {"measurement": "CREATINE PHOSPHOKINASE", "setting": "120 h, time 5 day", "value": 112, "unit": "u/L"}, {"measurement": "CREATININE", "setting": "120 h, time 5 day", "value": 0.53, "unit": "mg/dL"}, {"measurement": "GLUCOSE", "setting": "120 h, time 5 day", "value": 180.33, "unit": "mg/dL"}, {"measurement": "PHOSPHORUS", "setting": "120 h, time 5 day", "value": 10.03, "unit": "mg/dL"}, {"measurement": "POTASSIUM", "setting": "120 h, time 5 day", "value": 6.8, "unit": "MEQ/L"}, {"measurement": "SODIUM", "setting": "120 h, time 5 day", "value": 149, "unit": "MEQ/L"}, {"measurement": "TOTAL BILIRUBIN", "setting": "120 h, time 5 day", "value": 0.23, "unit": "mg/dL"}, {"measurement": "TOTAL PROTEIN", "setting": "120 h, time 5 day", "value": 5.7, "unit": "G/DL"}]}]}
